Measurements taken from publication PMC8262977, “A Dual-Specificity Inhibitor Targets Polyphosphate Kinase 1 and 2 Enzymes To Attenuate Virulence of Pseudomonas aeruginosa” (mBio, 2021).

Columns and labels:
P. aeruginosa PPK2A = biological target: T1, P. aeruginosa PPK2A (Pseudomonas aeruginosa, UniProt Q9I6Z1); assay: PPK2A ADP phosphorylation by polyP (ATP synthesis), toluidine blue detection; type: biochemical; conditions: ATP synthesis from ADP and polyP; 275 nM enzyme; read-out: IC50 PPK2A
T1 construct: residues P9 to P289; MBP (N, cleaved yes); His tag (N, cleaved yes); made in house; host or cells: E. coli BL21(DE3)
Description: All IC50 and kinetic assay mixtures contained equimolar amounts (275 nM) of PPK to ensure valid comparison between different enzymes. PolyP synthesis activity (for PPK1 and PPK2B) was assayed using the reaction buffer and conditions described above. ATP concentration was varied as indicated for kinetic experiments. Curves were fit using GraphPad Prism V9.
Nucleotide phosphorylation activity of PPK2 enzymes was assayed in buffer containing 50 mM Tris-HCl, pH 7.5, 10 mM (NH4)2SO4, 10 mM MgCl2, 5 mM polyP45 (Sigma; in terms of individual Pi monomers), and nucleotide (ADP or AMP) at 5 mM for IC50 reactions or as indicated for kinetic experiments. Enzyme was added to a final concentration of 275 nM in 100-μl reaction volumes. One-hundred-microliter reaction mixtures were incubated at 37°C for 30 min, and then 5-μl aliquots were withdrawn and added to 1,000 μl of 6-mg/liter toluidine blue dissolved in 40 mM acetic acid to quench the reaction and quantify the polyP that remained. The A630/530 nm ratio was then recorded, and the values obtained were corrected by subtracting the corresponding blanks (all ingredients except enzyme). The amount of polyP consumed was calculated by subtracting the amount present after reaction from that present in the initial reaction mix, as calculated via a standard curve. Each monomer of Pi consumed from polyP equates to one nucleoside phosphorylated. Curves were fit using GraphPad Prism V9.

P. aeruginosa PA14 [1] = assay: Bacterial polyP accumulation assay after phosphate starvation; type: cell-based, Pseudomonas aeruginosa
Description: P. aeruginosa polyP levels following nutrient deprivation in morpholinepropanesulfonic acid (MOPS) minimal medium were assessed as described previously ([8]), with slight variations. Briefly, overnight cultures were grown in 5 ml LB in the presence of inhibitor or DMSO as indicated. Cultures were centrifuged for 10 min at 3,900 rpm to pellet cells, which were then resuspended in MOPS minimal medium containing 100 μM phosphate and the indicated quantity of inhibitor or DMSO. Cultures were incubated at 37°C for 2 h to allow polyP accumulation and then subsequently pelleted, resuspended in guanidinium thiocyanate (GITC) lysis buffer, and boiled at 95°C for 5 min. PolyP was purified via silica spin column as described previously ([8]), with the exception of using 50 nM PPK2A instead of E. coli PPK to convert polyP to ATP. An Invitrogen ATP determination kit (ThermoFisher) was used per the manufacturer’s instructions for ATP quantification. Luminescence was recorded on a SpectraMax iD3 microplate reader (Molecular Devices).

P. aeruginosa PA14 [2] = assay: Biofilm assay, crystal violet staining; type: cell-based, Pseudomonas aeruginosa
Description: P. aeruginosa biofilms were quantified as described previously ([54]). Briefly, M63 medium supplemented with 1 mM MgSO4 and 0.4% arginine as the sole carbon source was colony inoculated with PA14. Biofilms were allowed to form in 96-well tissue culture plates (U-bottom; Sarstedt) at 37°C for 16 h. Wells were washed twice with sterile water. Biofilm rings were stained with 0.1% crystal violet, washed twice with water, and then solubilized in 30% acetic acid to record absorbance at 570 nm.

P. aeruginosa = assay: C. elegans solid-phase slow killing (SK) infection assay; type: in vivo, Caenorhabditis elegans; conditions: 100 μM gallein
Description: Wild-type N2 C. elegans and the glp-4 conditionally sterile mutant strain were obtained from the Caenorhabditis Genetics Center. Liquid killing assays were conducted using glp-4 mutant worms as described previously ([35]), with the exception of survival being scored manually under a Zeiss light microscope instead of via Sytox Orange staining. Nematodes were scored as dead when they no longer moved when tapped. Solid killing was conducted using glp-4 as described previously ([34]), with the indicated concentration of inhibitor impregnated into the SK agar. Bacterial CFU accumulation in WT N2 worms was quantified as described previously ([56]). Briefly, age-synchronized embryos were spotted onto bacterium-seeded nematode growth medium (NGM) agar plates impregnated with inhibitor or DMSO. Embryos were incubated at 25°C for 3 days, after which point adult worms were harvested, washed, lysed, and enumerated for CFU.

[3] = parameters: method as in PMID 29084601, PMID 24703913, PMID 30024944; conditions: rats, 5 to 10 mg/kg of body weight daily for up to 8 weeks; cited from earlier work
[4] = WT: DMSO control vs 100 µM gallein
[5] = Δppk1: DMSO control vs 100 µM gallein

T1 sequence (Q9I6Z1 68-348): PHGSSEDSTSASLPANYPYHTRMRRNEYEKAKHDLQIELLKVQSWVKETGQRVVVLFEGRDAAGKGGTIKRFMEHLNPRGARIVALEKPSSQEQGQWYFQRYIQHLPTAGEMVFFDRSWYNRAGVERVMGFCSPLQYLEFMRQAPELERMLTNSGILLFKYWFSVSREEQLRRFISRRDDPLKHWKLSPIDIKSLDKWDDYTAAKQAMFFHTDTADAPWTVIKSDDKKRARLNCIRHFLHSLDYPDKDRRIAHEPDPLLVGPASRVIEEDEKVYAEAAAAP

Question: For O=C1OC2(c3ccccc31)c1ccc(O)c(O)c1Oc1c2ccc(O)c1O [RT4 (gallein), gallein], which IC50 (P. aeruginosa PPK2A) is on record?
Answer: Its IC50 is 16 ± 3 µM.

Question: What about the polyP levels (P. aeruginosa PA14 [1]; WT, phosphate starvation medium, nonbactericidal amounts) of the same molecule?
Answer: The polyP levels was “reduced wild-type (WT) polyP levels in a dose-dependent manner”.

Question: What about the “Bacterial polyP accumulation, Mean Diff.” value (P. aeruginosa PA14 [1]; [4]) of the same molecule?
Answer: The value was 68.65.

Question: And the “Bacterial polyP accumulation, Mean Diff.” value (P. aeruginosa PA14 [1]; Δppk1, Δppk2A, Δppk2B, Δppk2C: DMSO control vs 100 µM gallein)?
Answer: The value was 2.148.

Question: And the “Bacterial polyP accumulation, Mean Diff.” value (P. aeruginosa PA14 [1]; [5])?
Answer: The value was 29.11.

Question: What about the polyP levels (P. aeruginosa PA14 [1]; Δppk1 strain) of the same molecule?
Answer: The polyP levels was “significantly reduced polyP levels”.

Question: And the polyP levels (P. aeruginosa PA14 [1]; Δppk1 Δppk2A Δppk2B Δppk2C (ΔpolyP) strain)?
Answer: The polyP levels was “had no effect”.

Question: And the polyP levels (P. aeruginosa PA14 [1]; Δppk2A Δppk2B Δppk2C strain)?
Answer: Its polyP levels is “reduced polyP in this strain to a similar extent as that in the WT”.

Question: What about the “Bacterial polyP accumulation, Mean Diff.” value (P. aeruginosa PA14 [1]; Δppk2A, Δppk2B, Δppk2C: DMSO control vs 100 µM gallein) of the same molecule?
Answer: The value was 74.9.

Question: What about the “Biofilm formation, Mean Diff.” value (P. aeruginosa PA14 [2]; [4]) of the same molecule?
Answer: The value was 0.1666.

Question: What about the biofilm formation (P. aeruginosa PA14 [2]; WT, reduction dose dependent) of the same molecule?
Answer: Its biofilm formation is “reduced biofilm formation”.

Question: What about the biofilm formation (P. aeruginosa PA14 [2]; ΔpolyP strain) of the same molecule?
Answer: The biofilm formation was “no significant effect”.

Question: What about the “Biofilm formation, Mean Diff.” value (P. aeruginosa PA14 [2]; Δppk1, 2a, 2b, 2c: DMSO control vs 100 µM gallein) of the same molecule?
Answer: Its value is 0.005375.

Question: What about the “Biofilm formation, Mean Diff.” value (P. aeruginosa PA14 [2]; [5]) of the same molecule?
Answer: The value was 0.08825.

Question: What about the biofilm formation (P. aeruginosa PA14 [2]; Δppk1 strain) of the same molecule?
Answer: Its biofilm formation is “further decreased biofilm formation”.

Question: What about the “Biofilm formation, Mean Diff.” value (P. aeruginosa PA14 [2]; Δppk2a, 2b, 2c: DMSO control vs 100 µM gallein) of the same molecule?
Answer: The value was 0.08488.

Question: What about the biofilm formation (P. aeruginosa PA14 [2]; Δppk2 strain) of the same molecule?
Answer: The biofilm formation was “further decreased biofilm formation”.

Question: What about the C. elegans survival (P. aeruginosa) of the same molecule?
Answer: The C. elegans survival was “significantly improved survival rates”.

Question: And the adverse effects [3]?
Answer: The adverse effects was “no adverse effects”.
